In patent publication US20030171361A1, “Pyrrolopyrimidinone derivatives, process of preparation and use” (priority 2002, published 2003):

Legend:
rabbit platelet PDE V = rabbit platelet PDE V (Oryctolagus cuniculus, UniProt G1SX67); experiment: inhibition of cGMP PDE V activity (PDE SPA assay kit, [3H]-cGMP); format: biochemical; settings: in vitro, inhibitors of cGMP PDE V; rabbit platelet enzyme, 30° C., 30 min
Protocol: The rabbit platelet PDE V was prepared using the method described by Hidaka et al.(Biochim. Biophys. Acta., 429: 485-497, 1976) with minor modification. The platelet-rich plasma (PRP) was prepared by centrifugation of freshly obtained heparinized whole blood at 360 g. Platelets were isolated from the PRP by centrifugation at 1,200 g. Platelet homogenates were prepared in the homogenization buffer (50 mM Tris-HCl buffer containing 1 mM MgCl2, pH 7.4) by sonication for 30 s per 1 mL. The homogenized solutions were then centrifuged at 40,000×g for 2 h at 4° C. The supernatant was loaded on the DEAE-cellulose column (20 mL bed volume, Sigma) pre-equilibrated with equilibration buffer (50 mM Tris-acetate containing 3.75 mM 2-mercaptoethanol, pH 6.0).The column was then washed with 60 mL of equilibration buffer. The PDE isozymes were eluted using a continuous gradient of 0 to 600 mM sodium acetate in the equilibration buffer (60 mL total volume). The 1.0 mL fractions were collected. A flow rate of 60 mL/h was used throughout the ion-exchange chromatography procedure. PDE activities on cAMP and cGMP were characterized as described below. The characterized fractions were pooled and stored at −80 ° C. until the inhibition studies
The cyclic nucleotide PDE V activity was determined using PDE SPA assay kit (Amersham Pharmacia biotech, UK).Each reaction mixture (100 μL total volume) consisted of the column elute containing PDE V (10 μL), [^3H]-cGMP (5 μCi/mL), bovine serum albumin (0.5 mg/mL), and MgCl2 (5 mM) in Tris-HCl buffer (15 mM, pH 7.5).The reactions were initiated by the addition of PDE V and the samples were incubated at 30° C. for 30 min, after which the reaction was stopped by the addition of 50 μL of SPA beads. The reaction tube was then settled for 20 min and was counted on the scintillation counter (Tri-carb 1500, Packard, USA). For the inhibition study of PDE V activity, the test compounds were dissolved in dimethyl sulfoxide (DMSO) and was diluted with distilled water. The final concentration of DMSO was less than 0.2% (v/v).All the inhibition experiments were conducted tinder the conditions where the level of cGMP hydrolysis (lid not exceed 15%, and the product formation increased linearly with time and the amount of enzyme.
The following Table illustrates the in vitro activities for a range of the compounds of the invention as inhibitors of cGMP PDE V.

melting point	IC50 (rabbit platelet PDE V)	Structure (SMILES)
183 to 183.5 °C	0.59 nM	CCCOc1ccc(S(=O)(=O)N2CCN(C)CC2)cc1-c1nc2c(CCC)cn(C)c2c(=O)[nH]1 [Example 3, 52-(5-(4-methylpiperazinylpiperazin-1-ylsulfonyl)-2-n-propoxyphenyl)-15-methyl-37-n-propyl-1,63,5-dihydro-7H4H-pyrrolo[4,33,2-d]pyrimidin-74-one]
	0.27 nM	CCCOc1ccc(S(=O)(=O)N2CCC(CCC(=O)O)CC2)cc1-c1nc2c(CCC)cn(C)c2c(=O)[nH]1 [Example 124, 52-(5-(4-(2-hydroxycarbonylethyl)piperidinylpiperidin-1-ylsulfonyl)-2-n-propoxyphenyl)-15-methyl-37-n-propyl-1,63,5-dihydro-7H4H-pyrrolo[4,33,2-d]pyrimidin-74-one]
162 to 163 °C	0.18 nM	CCCOc1ccc(S(=O)(=O)N2CCN(CCO)CC2)cc1-c1nc2c(CCCF)cn(CC)c2c(=O)[nH]1 [Example 30]
	0.33 nM	CCCOc1ccc(S(=O)(=O)N2CCN(CCO)CC2)cc1-c1nc2c(CCC)cn(CC)c2c(=O)[nH]1 [Example 31]
217.5 to 218 °C	1.36 nM	CCCc1cn(C)c2c(=O)[nH]c(-c3cc(S(=O)(=O)N4CCN(CCCF)CC4)ccc3OCC)nc12 [Example 14, 52-(2-ethoxy-5-(4-(3-fluoropropyl)piperazinylpiperazin-1-ylsulfonyl)phenyl)-15-methyl-37-n-propyl-1,63,5-dihydro-7H4-pyrrolo[4,33,2-d]pyrimidin-74-one]
220.5 to 221 °C	2.9 nM	CCCc1cn(C)c2c(=O)[nH]c(-c3cc(S(=O)(=O)N4CCN(C)CC4)ccc3OCC)nc12 [Example 1, 52-(2-ethoxy-5-(4-methylpiperazinylpiperazin-1-ylsulfonyl)phenyl)-15-methyl-37-n-propyl-1,63,5-dihydro-7H4H-pyrrolo[4,33,2-d]pyrimidin-74-one]
129 to 130.5 °C	0.71 nM	CCCc1cn(C)c2c(=O)[nH]c(-c3cc(S(=O)(=O)N4CCC(CCC(=O)O)CC4)ccc3OCC)nc12 [Example 123, 52-(2-ethoxy-5-(4-(2-hydroxycarbonylethyl)piperidinylpiperidin-1-ylsulfonyl)phenyl)-15-methyl-37-n-propyl-1,63,5-dihydro-7H4H-pyrrolo[4,33,2-d]pyrimidin-74-one]
182 to 182.5 °C	2.23 nM	CCOc1ccc(S(=O)(=O)N2CCN(CCCF)CC2)cc1-c1nc2c(CC)cn(CC)c2c(=O)[nH]1 [Example 18, 52-(2-ethoxy-5-(4-(3-fluoropropyl)piperazinylpiperazin-1-ylsulfonyl)phenyl)-15-ethyl-37-ethyl-1,63,5-dihydro-7H4H-pyrrolo[4,33,2-d]pyrimidin-74-one]
194 to 194.5 °C	0.62 nM	CCOc1ccc(S(=O)(=O)N2CCN(CCCF)CC2)cc1-c1nc2c(CCCF)cn(CC)c2c(=O)[nH]1 [Example 26, 52-(2-ethoxy-5-(4-(3-fluoropropyl)piperazinylpiperazin-1-ylsulfonyl)phenyl)-15-ethyl-37(3-fluoropropyl)-1,63,5-dihydro-7H4H-pyrrolo-[4,33,2-d]pyrimidin-74-one]
	0.49 nM	CCCOc1ccc(S(=O)(=O)N2CCN(CCO)CC2)cc1-c1nc2c(CCC)cn(C)c2c(=O)[nH]1 [Example 53, 52-(5-(4-(2-hydroxyethyl)piperazinylpiperazin-1-ylsulfonyl)-2-n-propoxyphenyl)-15-methyl-37-n-propyl-1,63,5-dihydro-7H4H-pyrrolo[4,33,2-d]pyrimidin-74-one]

Structure (SMILES)	melting point	IC50 (rabbit platelet PDE V)
CCCc1cn(C)c2c(=O)[nH]c(-c3cc(S(=O)(=O)N4CCN(CCO)CC4)ccc3OCC)nc12 [Example 51, 52-(2-ethoxy-5-(4-(2-hydroxyethyl)piperazinylpiperazin-1-ylsulfonyl)phenyl)-15-methyl-37-n-propyl-1,63,5-dihydro-7H4H-pyrrolo[4,33,2-d]pyrimidin-74-one]		2.06 nM
CCCOc1ccc(S(=O)(=O)N2CCN(CCCF)CC2)cc1-c1nc2c(CCC)cn(C)c2c(=O)[nH]1 [Example 37, 52-(5-(4-(3-fluoropropyl)piperazinylpiperazin-1-ylsulfonyl)-2-n-propoxyphenyl)-15-methyl-37-n-propyl-1,63,5-dihydro-7H4H-pyrrolo[4,33,2-d]pyrimidin-74-one]		0.64 nM
